Data published in US5126057A, “Disinfecting with N,N'-dihaloimidazolidin-4-ones” (Auburn Research Foundation, priority 1991, dated 1992).
In brackets after ≈: the same amount, converted by molar mass. Where two headings read alike, the source gives them in different places.

What was measured:
[1] = cited from earlier work
[2] = Formation of N-halogenated imidazolidin-4-ones in situ (loss of free chlorine, DPD/FAS); type: physicochemical; settings: for reaction with free chlorine: pH 7.0, 24°±1° C.
Protocol: An aqueous solution containing 50.0 milligrams (3.52×10^-4 moles) of 2,2,5,5-tetramethylimidazolidin-4-one synthesized as in example 2 in 50.0 milliliters of 0.05 molar sodium phosphate buffer (pH 7.0) was prepared. The buffer solution had been made halogen demand-free by chlorination with 3 milligrams per liter total chlorine from sodium hypochlorite followed by exposure to direct sunlight for two days until no titratable chlorine remained. A halogen demand-free solution of free chlorine buffered to pH 7.0 was prepared by bubbling chlorine gas into a flask containing the demand-free buffered water. Then 19 milliliters of the solution containing 1.31 grams per liter of free chlorine (7.02×10^-4 moles of positive halogen) was added to the solution containing the 2,2,5,5-tetramethylimidazolidin-4-one at ambient temperature (24°±1° C.) while stirring.
The reaction rate for formation of 1,3-dichloro-2,2,5,5-tetramethylimidazolidin-4-one and/or 1-chloro-2,2,5,5-tetramethylimidazolidin-4-one in situ was then followed kinetically by observing the loss of free chlorine concentration from the reaction mixture as a function of time. The concentration of free chlorine was monitored by withdrawing aliquots from the mixture periodically and titrating them by the DPD/FAS (N,N-diethyl-p-phenylenediamine/ferrous ammonium sulfate) method as described in "Standard Methods for the Examination of Water and Wastewater, 16th edition, American Public Health Association, Washington, D. C., 1985, pp. 306-309. The moles of free chlorine present in the reaction mixture declined from 7.02×10^-4 at the time of mixing to 4.45×10^-5 after only 48 seconds representing 94% reaction. Then further declination of free chlorine occurred to 3.63×10^-5 moles after 2.87 minutes, 3.48×10^-5 moles after 6.07 minutes, and 3.32×10^-5 moles after 114.6 minutes. Thus after 114.6 minutes 95% of the reaction had occurred. At this time 1.76×10^-5 additional moles of 2,2,5,5-tetramethylimidazolidin-4-one was added, and the concentration of free chlorine declined to zero by 140 minutes total elapsed time.

[3] = Hydrolysis equilibrium constant in demand-free water; type: physicochemical; settings: pH 7.0, 24°±1° C.
Protocol: The equilibrium constant for the hydrolysis reaction of 1,3-dichloro-2,2,5,5-tetramethylimidazolidin-4-one to form 1-chloro-2,2,5,5-tetramethylimidazolidin-4-one and free chlorine (Cl^+) was determined at pH 7.0 and 24°±1° C. This was accomplished by preparing a solution of the 1,3-dichloro-2,2,5,5-tetramethylimidazolidin-4-one in demand-free 0.05 molar sodium phosphate buffer (pH 7.0) and allowing the solution to equilibrate while stirring for 1 hour. Then the DPD/FAS technique (as in example 7) was used to determine the free and total chlorine concentrations in the equilibrated solution. The concentration of combined 1,3-dichloro-2,2,5,5-tetramethylimidazolidin-4-one was calculated from the difference between the measured total and free chlorine concentrations. The hydrolysis equilibrium constant was then calculated as the square of the molar free chlorine concentration divided by the molar combined chlorine concentration. For a starting molar total chlorine concentration of 4.441×10^-3 moles per liter, at equilibrium the combined chlorine concentration was 4.428×10^-3 moles per liter, and the free chlorine concentration was 1.269×10^-5 moles per liter. […] For a starting molar total chlorine concentration of 1.764×10^-3 moles per liter, at equilibrium the combined chlorine concentration was 1.759×10^-3 moles per liter, and the free chlorine concentration was 5.360×10^-6 moles per liter. […] The average equilibrium constant for the two separate determinations was thus 2.6±1.0×10^-8.

[4] = physchem; type: physicochemical
Protocol: In method (a) 47.4 grams (0.3 mole) of 2,2,5,5-tetramethylimidazolidine-4-thione was dissolved in 1.2 liters of 3 Normal sodium hydroxide solution (3.6 moles) in a 2 liter flask. The flask and its contents were cooled to 5° C. using an ice bath, and chlorine gas was bubbled into the mixture while stirring until the pH of the solution reached 7.0. The temperature of the mixture was not allowed to rise above 10° C. during this process. The N,N'-dichloroimidazolidin-4-one product precipitated as a white solid. Following addition of 800 milliliters of water to the flask, the solid product was recovered by suction filtration. The product was then purified by dissolving it in hexane, allowing the impurities and remaining water to settle, and recovery by evaporation of the volatile hexane layer which was separated from the impurity/water layer. The product yield was 53.9 grams or 85% of that theoretically expected. Elemental analysis of the product (1,3-dichloro-2,2,5,5-tetramethylimidazolidin-4-one) gave the following results: (calculated/found) % carbon 39.82/39.86, % hydrogen 5.73/5.50, % nitrogen 13.27/13.24, and % chlorine 33.59/32.88. […] Analysis of the product by proton NMR and infrared spectroscopy yielded the following results:
5.1 Grams (0.036 mole) of 2,2,5,5-tetramethylimidazolidin-4-one prepared as in example 2 was dissolved in 88 milliliters of 1 Normal sodium hydroxide solution (0.088 mole) in a 250 milliliter flask. While maintaining this mixture at 10° C. or below using an ice bath and stirring, 12.8 grams (0.08 mole) of liquid bromine was added dropwise. The product 1,3-dibromo-2,2,5,5-tetramethylimidazolidin-4-one precipitated from the mixture as a pale yellow solid. The product was recovered by suction filtration and purified by recrystallization from hexane. The product yield was 9.2 grams or 85% of that theoretically expected. Elemental analysis of the product (1,3-dibromo-2,2,5,5-tetramethylimidazolidin-4-one) gave the following results: (calculated/found) % carbon 28.00/27.80, % hydrogen 4.00/4.07, % nitrogen 9.33/9.39, and % bromine 53.33/52.09. […] Analysis of the product by proton NMR and infrared spectroscopy yielded the following results:
6.4 Grams (0.045 mole) of 2,2,5,5-tetramethylimidazolidin-4-one prepared as in example 2 was dissolved in 55 milliliters of 1 Normal sodium hydroxide solution (0.055 mole) in a 250 milliliter flask. While maintaining the reaction mixture at a temperature of 5°-10° C. by use of an ice bath and stirring, 4.0 grams (0.025 mole) of liquid bromine was added dropwise. The reaction mixture was stirred at ice bath temperature for an additional 1 hour and then for 1-2 hours at cold water bath conditions (10°-20° C.). Following cooling the mixture below 10° C. again, 50 milliliters of 1 Normal sodium hydroxide solution (0.05 mole) was added, and chlorine gas was bubbled in while stirring at 5°-10° C. until the pH reached 6-7. The 1-bromo-3-chloro-2,2,5,5-tetramethylimidazolidin-4-one product precipitated as a white solid. The product was recovered by suction filtration and purified by recrystallization from hexane. The product yield was 11.2 grams or 97% of that theoretically expected. Elemental analysis of the product gave the following results: (calculated/found) % carbon 32.88/32.68, % hydrogen 4.70/4.74, % nitrogen 10.96/10.83, % bromine 31.31/33.37, % chlorine 13.89/12.67. The rather high and low found values as compared to the theoretical values for bromine and chlorine, respectively, indicate that the product was contaminated with a small amount of 1,3-dibromo-2,2,5,5-tetramethylimidazolidin-4-one. […] Analysis of the product by proton NMR and infrared spectroscopy yielded the following results: […]

[5] = Stability of unhalogenated 2,2,5,5-tetramethylimidazolidin-4-one in water exposed to direct sunlight; type: physicochemical
Protocol: A solution containing 142 milligrams (1.00×10^-3 moles) of 2,2,5,5-tetramethylimidazolidin-4-one (Compound 6) in 1.0 liter of demand-free water buffered to pH 7.0 was prepared. 100 milliliter samples (1.00×10^-4 moles of Compound 6) of this solution were placed in each of five 100 milliliter volumetric flasks. The flasks were sealed with ground glass stoppers and placed in direct sunlight on the roof of the chemistry building at Auburn University during the period Jul. 6, 1989 to Aug. 2, 1989. No effort was made to control the temperature in this experiment; it was typically 33° C. during this period. […]
After allowing the reaction of Compound 6 with free chlorine to form a mixture of 1,3-dichloro-2,2,5,5-tetramethylimidazolidin-4-one (Compound 1) and 1-chloro-2,2,5,5-tetramethylimidazolidin-4-one (Compound 3) to proceed with stirring over a period of 1 hour, aliquots were analyzed for total and free chlorine using the DPD-FAS procedure mentioned in example 8. The combined chlorine concentration was assumed to be the difference between the determined total and free chlorine concentrations, and to represent the amounts of compounds 1 and 3 forming during the reaction.

[6] = starting total chlorine 1.764×10^-3 moles per liter
[7] = starting total chlorine 4.441×10^-3 moles per liter

## CC1(C)COC(=O)N1Cl [3-chloro-4,4-dimethyl-2-oxazolidinone]
[1]; reported by Williams, Elder and Worley, 1988
  hydrolysis equilibrium constant: 2.3×10^-9

## O=c1n(Cl)c(=O)n(Cl)c(=O)n1Cl [trichloroisocyanuric acid]
[1]; reported by G. D. Nelson, Kirk-Othmer 1979
  hydrolysis equilibrium constant: 1.6×10^-4

## CC1(C)NC(=O)C(C)(C)N1 [2,2,5,5-tetramethylimidazolidin-4-one]
[2]; 48 seconds
  reaction with free chlorine: 94%
[2]; 114.6 minutes
  reaction with free chlorine: 95%
[2]; free chlorine added to pH 7.0 demand-free water
  time for in situ formation of halogenated imidazolidin-4-ones: less than 1 minute

## CC1(C)C(=O)N(Cl)C(C)(C)N1Cl [1,3-dichloro-2,2,5,5-tetramethylimidazolidin-4-one]
[3]; average of two determinations
  average hydrolysis equilibrium constant: 2.6±1.0×10^-8
[3]; [6]
  combined chlorine concentration at equilibrium: 1.759×10^-3 moles per liter
  free chlorine concentration at equilibrium: 5.360×10^-6 moles per liter
  hydrolysis equilibrium constant: 1.63×10^-8
[3]; [7]
  combined chlorine concentration at equilibrium: 4.428×10^-3 moles per liter
  free chlorine concentration at equilibrium: 1.269×10^-5 moles per liter
  hydrolysis equilibrium constant: 3.64×10^-8
[4]
  solubility in water: 0.224 grams in 100 milliliters of water
[4]; water, solubility in water
  solubility: 1380 µg/mL (≈ 6.54 mM)

## CC1(C)NC(=O)C(C)(C)N1 [Compound 6, 2,2,5,5-tetramethylimidazolidin-4-one]
[5]; 4 weeks direct sunlight, DFW pH 7.0, typically 33° C., then reacted with free chlorine
  variation of combined chlorine concentration: ≤ 6%
[5]; DFW, pH 7.0, direct sunlight
  time for which stable in direct sunlight: at least 4 weeks
